Common to all, as to assay: inhibition of tumour cell growth, NCI panel, 48 h
Test [1] has as its system BT-549 breast.
In test [2] the test system is HCT-116 colon.
The subject of test [3] is HOP-62 NSCLC.
In test [4] the test system is HOP-92 NSCLC.
For test [5], the system named is HT29 colon.
Test [6] deals with MDA-MB-435.
The test system of test [7] is NCI-H23 lung.
Test [8] relates to OVCAR-5 ovarian.
Test [9] has as its system OVCAR-8 ovarian.
For test [10], the system named is RPMI-8226 leukemia.
Test [11] concerns RXF 393 renal.
For test [12], the system named is SF-268 CNS.
Test [13] relates to SF-295 CNS.
Test [14] relates to SK-MEL-2 melanoma.
Test [15] deals with SK-MEL-28 melanoma.
Test [16] concerns SN12C renal.
The subject of test [17] is SNB-75 CNS.
Test [18] concerns SR leukemia.
For test [19], the system named is UACC-62 melanoma.

Each structure is given as a SMILES string.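 Interpolation was linear, between the two tested concentrations surrounding the appropriate level; five concentrations were tested over 48 hours in 96-well plates. TGI: total growth inhibition.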

On to `Nc1nc(Cl)c2ncn(Cc3cccc(CCl)c3)c2n1`, for which the TGI was 17.4 µM in test [1]; 4.05 µM in test [2]; 9.48 µM in test [3]; 24.5 µM in [4]; 19.2 µM in test [5]; 29 µM in [6]. Further, the TGI came to 4.23 µM in [7]; 22.8 µM in [8]; 11.3 µM in test [9]; 9.81 µM in test [10]; 10.5 µM in [11]; 18.9 µM in test [12]. For the same compound, the TGI is 21.3 µM in [13]; 58.5 µM in test [14]; 23.9 µM in [15]; 22.4 µM in test [16]; 26.8 µM in test [17]; > 28.3 µM in test [18]. This compound yielded a TGI in [19] of 10.9 µM.

As for `CC(NC1=CC(=O)c2cccnc2C1=O)C(O)c1ccccc1` (stereo not drawn), the TGI is 3.59 µM in test [1]; 7.79 µM in test [2]; 3.03 µM in test [3]; 24.5 µM in test [4]; 9.45 µM in [5]; 3.13 µM in [6]. Besides, the TGI in test [7] came out at 3.01 µM; in test [8], 4.69 µM; in [9], 17.6 µM; in test [10] it was 6.7 µM; in test [11], 16.5 µM; in test [12] it was 20.8 µM. Besides, the TGI in [13] is 2.63 µM; in [14], 4.48 µM; in [15], 3.1 µM; in [16] it was 3.04 µM; in [17] it was 3.05 µM; in test [18], > 23.1 µM. In [19], the TGI was determined as 3.1 µM.

Turning to `O=[N+]([O-])c1cc(-[n+]2cc([O-])on2)ccc1Cl`, the TGI in [1] is 49 µM; in [2] it was 39.8 µM; in [3], 30.1 µM; in [4] it was 42.1 µM; in [5], 28.5 µM; in test [6] it was > 100 µM. The TGI in test [7] worked out at 26.6 µM; in [8], 32.4 µM; in test [9], 49.7 µM; in test [10] it was 79.8 µM; in test [11] it was 27.9 µM; in [12], 78.3 µM. Also, the TGI in [13] was 51.5 µM; in test [14] it was 46.3 µM; in test [15], 29.6 µM; in test [16], 29.8 µM; in test [17] it was 66.3 µM; in [18] it was > 100 µM. Also, in test [19], the TGI turned out to be 89.8 µM.

In the case of `CCc1c(CNC2=NCCN2)c(CC)c(CNC2=NCCN2)c(CC)c1CNC1=NCCN1`, the TGI in [1], in [2], in test [3], in [4], in test [5] and in [6] was > 100 µM each time. Also, the TGI in test [7], in test [8], in test [9], in test [10], in test [11] and in test [12] was > 100 µM in each case. In addition, the TGI in test [13], in [14], in test [15], in test [16], in test [17] and in [18] was > 100 µM throughout. For the same compound, the TGI in test [19] was > 100 µM.

On to `CCOC(=O)CCC(NC(=O)c1ccc(Oc2nc3c(N)cc(C(F)(F)F)cc3nc2-c2ccccc2)cc1)C(=O)OCC` (stereo not drawn), for which the TGI is > 95 µM in test [1]; > 25.2 µM in [2]; 28.5 µM in test [3]; > 100 µM in [4]; > 100 µM in test [5]; > 100 µM in test [6]. Moreover, the TGI in test [7] is > 59.3 µM; in test [8], > 100 µM; in test [9] it was > 80.7 µM; in [10], > 100 µM; in [11], 47.7 µM; in test [12] it was > 71.2 µM. The TGI in test [13] was 96.8 µM; in test [14], > 30.7 µM; in [15], > 100 µM; in test [16], > 100 µM; in test [17], 25.4 µM; in test [18], > 100 µM. Moreover, in [19], the TGI was > 100 µM.

Turning to `CO[C@]12S[C@@H]3CCCC[C@@]31C(C)(C)C(=O)N2c1ccccc1`, the TGI in [1] is > 100 µM; in test [2], > 100 µM; in test [3], 53.5 µM; in test [4] it was > 100 µM; in [5] it was > 100 µM; in test [6], > 100 µM. For the same compound, the TGI was > 100 µM in [7]; > 100 µM in test [8]; > 100 µM in [9]; 73 µM in test [10]; > 100 µM in [11]; > 100 µM in [12]. Moreover, the TGI in test [13] is 51.1 µM; in test [14], 95.5 µM; in test [15], > 100 µM; in [16] it was 56.7 µM; in test [17], > 100 µM; in test [18], > 100 µM. The TGI in test [19] was > 100 µM.

Regarding `COC(=O)Cc1c([C@H]2[C@H](CC(=O)OC)c3ccccc3N2S(=O)(=O)c2ccc(C)cc2)[nH]c2ccccc12`, the TGI in test [1], in test [2], in [3], in [4], in test [5] and in test [6] was > 100 µM throughout. In addition, the TGI in [7], in test [8], in test [9], in test [10], in [11] and in test [12] was > 100 µM in each case. Also, the TGI in test [13] is > 100 µM; in test [14], > 100 µM; in [15] it was > 100 µM; in test [16] it was > 100 µM; in [17] it was > 100 µM; in [18] it was > 84.9 µM. Also, the TGI in [19] was > 100 µM.

The record behind these values is PubChem BioAssay (NCI).
